# Results from patent US7589109B2, “Oxyindole derivatives” (Pfizer Inc, priority 2005, dated 2009).
# Legend:
# [1] = target: T1, 5-HT4 receptors in the rat esophagus (Rattus norvegicus, UniProt Q62758); assay: TMM functional assay; conditions: 1 μM antagonist added to bath; carbachol-contracted rat TMM relaxed by 5-HT
# T1 construct: The remaining inner tube of smooth muscle was known as the TMM; tissue Charles River (animals); host or cells: rat esophagus tunica muscularis mucosae (TMM) smooth muscle, organ bath
# From the text: More specifically, partial agonist activity can be measured according to the following procedures.
# Male SD rats (Charles River) weighing 250-350 g were stunned and then killed by cervical dislocation. The esophagus was dissected from immediately proximal to the stomach (including piece of stomach to mark distal end) up to the level of the trachea and then placed in fresh Krebs' solution.
# The outer skeletal muscle layer was removed in one go by peeling it away from the underlying smooth muscle layer using forceps (stomach to tracheal direction). The remaining inner tube of smooth muscle was known as the TMM. This was trimmed to 2 cm from the original ‘stomach-end’ and the rest discarded.
# The TMMs were mounted as whole ‘open’ tubes in longitudinal orientation in 5 ml organ baths filled with warm (32° C.) aerated Krebs. Tissues were placed under an initial tension of 750 mg and allowed to equilibrate for 60 minutes. The tissues were re-tensioned twice at 15 minute intervals during the equilibration period. The pump flow rate was set to 2 ml/min during this time.
# Following equilibration, the pump was switched off. The tissues were exposed to 1 μM carbachol and contracted and reached a steady contractile plateau within 15 minutes. Tissues were then subject to 1 μM 5-HT (this was to prime the tissues). The tissues relaxed in response to 5-HT fairly rapidly—within 1 minute. […]
# T1 sequence (Q62758 whole entry): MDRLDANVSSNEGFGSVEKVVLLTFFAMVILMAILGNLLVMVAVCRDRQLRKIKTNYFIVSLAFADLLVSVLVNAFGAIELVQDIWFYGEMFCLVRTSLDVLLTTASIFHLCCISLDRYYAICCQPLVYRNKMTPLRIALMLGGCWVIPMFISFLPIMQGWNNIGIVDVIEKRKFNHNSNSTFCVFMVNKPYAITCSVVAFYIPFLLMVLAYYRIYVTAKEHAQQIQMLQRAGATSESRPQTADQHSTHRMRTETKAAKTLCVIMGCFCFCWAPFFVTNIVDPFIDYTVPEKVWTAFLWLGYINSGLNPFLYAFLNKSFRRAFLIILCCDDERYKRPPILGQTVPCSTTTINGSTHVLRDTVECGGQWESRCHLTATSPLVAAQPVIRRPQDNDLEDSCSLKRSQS
Compound,melting point,reversal of agonist-induced relaxation [1]
O=C(NCC1CCN(CC2(C(=O)O)CCOCC2)CC1)N1C(=O)C2(CCCC2)c2ccccc21,146.3 °C,
CC(C)(CN1CCC(CNC(=O)N2C(=O)C(C)(C)c3ccccc32)CC1)C(=O)O,164.5 °C,
O=C(NCC1CCN(CC2(C(=O)O)CCCCC2)CC1)N1C(=O)C2(CCCC2)c2ccccc21,160.4 °C,
CC1(C)C(=O)N(C(=O)NCC2CCN(CC3(C(=O)O)CCC3)CC2)c2cc(F)ccc21,193 °C,
CC(C)(CN1CCC(CNC(=O)N2C(=O)C(C)(C)c3ccc(F)cc32)CC1)C(=O)O,134 °C,
CC1(C)C(=O)N(C(=O)NCC2CCN(C(C)(C)C(=O)O)CC2)c2cc(F)ccc21,213 °C,
CC(C)(CN1CCC(CNC(=O)N2C(=O)C3(CCCC3)c3ccccc32)CC1)C(=O)O,189.1 °C,
CC(C)(CN1CCC(F)(CNC(=O)N2C(=O)C(C)(C)c3ccc(F)cc32)CC1)C(=O)O,176 °C,
CC(C)(CN1CCC(F)(CNC(=O)N2C(=O)C(C)(C)c3ccccc32)CC1)C(=O)O,156 °C,
CC1(C)C(=O)N(C(=O)NCC2(O)CCN(CC3(C(=O)O)CCC3)CC2)c2cc(F)ccc21,159 °C,
O=C(NCC1CCN(CC2(C(=O)O)CC2)CC1)N1C(=O)C2(CCCC2)c2ccccc21,186.5 °C,
O=C(NCC1CCN(CC2(C(=O)O)CCCC2)CC1)N1C(=O)C2(CCCC2)c2ccccc21,188.1 °C,
O=C(NCC1CCN(CC2(C(=O)O)CCC2)CC1)N1C(=O)C2(CCCC2)c2ccccc21,171 °C,
O=C(NCC1CCN(CC2(C(=O)O)CCC2)CC1)N1C(=O)C2(CCCC2)c2ccc(F)cc21,150.3 °C,
O=C(NCC1CCN(CC2(C(=O)O)CCOCC2)CC1)N1C(=O)C2(CCCC2)c2ccc(F)cc21,161.3 °C,
CC1(C)C(=O)N(C(=O)NCC2CCN(CC3(C(=O)O)CCC3)CC2)c2ccccc21,170.9 °C,
"O=C(OCCN1CCCCC1)c1c[nH]c2ccccc12 [SB 203,186, 1H-Indole-3-carboxylic acid, 2-(1-piperidinyl)ethyl ester]",,reversed 5-HT induced relaxation
